Like-named read-outs stand apart in the source and are kept apart here. Where a SMILES comes first, the peptide text is derived from it. Where no end group is shown, it is not given here. [ ]: non-standard residue; d: D form. Nle = CCCC[C@H](N)C(=O)O
Legend:
[1] = molecular target: T1, full-length mGPR116 (HEK293 clone 3C) (Mus musculus, UniProt G5E8Q8); assay: Calcium transient assay, full-length mGPR116 stably expressed in HEK293 (clone 3C); format: cell-based; settings: for activation of the mouse full-length receptor (in words): calcium flux assays, Figure 3F
T1 construct: expressed in transfected cells
T1 sequence (G5E8Q8 22-1348): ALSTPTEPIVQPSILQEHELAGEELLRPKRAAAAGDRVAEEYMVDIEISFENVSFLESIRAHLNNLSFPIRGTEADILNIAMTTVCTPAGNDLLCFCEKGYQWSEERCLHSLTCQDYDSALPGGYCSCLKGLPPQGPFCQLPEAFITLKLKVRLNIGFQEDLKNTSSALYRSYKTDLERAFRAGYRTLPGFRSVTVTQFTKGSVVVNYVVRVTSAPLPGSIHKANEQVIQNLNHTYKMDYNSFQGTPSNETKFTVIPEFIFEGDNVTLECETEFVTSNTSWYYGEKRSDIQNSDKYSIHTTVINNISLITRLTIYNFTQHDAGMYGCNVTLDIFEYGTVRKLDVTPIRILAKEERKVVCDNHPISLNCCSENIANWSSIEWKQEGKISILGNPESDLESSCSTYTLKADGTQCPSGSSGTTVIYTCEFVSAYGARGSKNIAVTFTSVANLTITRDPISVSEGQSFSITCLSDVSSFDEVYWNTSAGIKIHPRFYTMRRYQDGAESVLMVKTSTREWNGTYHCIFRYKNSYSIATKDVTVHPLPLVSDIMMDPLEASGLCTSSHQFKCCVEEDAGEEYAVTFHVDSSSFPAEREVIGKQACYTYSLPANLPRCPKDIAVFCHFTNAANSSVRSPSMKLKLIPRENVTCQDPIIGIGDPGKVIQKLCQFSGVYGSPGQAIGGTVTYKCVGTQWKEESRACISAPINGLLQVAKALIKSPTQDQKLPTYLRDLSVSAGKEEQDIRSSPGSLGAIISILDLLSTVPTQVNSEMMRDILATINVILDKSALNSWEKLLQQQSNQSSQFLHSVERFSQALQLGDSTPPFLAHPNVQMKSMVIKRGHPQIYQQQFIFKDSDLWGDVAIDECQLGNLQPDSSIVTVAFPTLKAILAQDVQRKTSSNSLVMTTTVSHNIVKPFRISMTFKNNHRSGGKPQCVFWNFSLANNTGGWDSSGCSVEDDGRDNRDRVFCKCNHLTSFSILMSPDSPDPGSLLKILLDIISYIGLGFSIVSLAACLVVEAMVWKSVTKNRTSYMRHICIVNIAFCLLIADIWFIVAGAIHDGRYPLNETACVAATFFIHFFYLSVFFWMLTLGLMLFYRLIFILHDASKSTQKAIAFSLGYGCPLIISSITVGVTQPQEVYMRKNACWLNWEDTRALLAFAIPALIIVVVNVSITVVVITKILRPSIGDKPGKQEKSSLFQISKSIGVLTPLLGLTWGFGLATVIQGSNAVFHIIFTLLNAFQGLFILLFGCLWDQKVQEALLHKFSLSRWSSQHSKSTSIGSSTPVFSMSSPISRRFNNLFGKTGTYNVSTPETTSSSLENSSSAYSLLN
Method: (§1) For some constructs, stable populations were generated by treating the cells with G418. After complete selection of resistant cells, these were used in assays. Stable HEK293 clones for full-length hGPR116 (clone A6) and mGPR116 (clone 3C) were described earlier ([Brown et al., 2017]).
(§2) HEK293 cells were seeded in 384-well plates (Greiner, #781946) at 30,000 cells/well. Medium was removed the following day and cells were loaded for 2 hr at 37°C, 5% CO2 with 20 µl Calcium 6 loading buffer (Molecular Devices, Cat# R8191): 1× HBSS (Gibco, Cat# 14065.049) containing 20 mM HEPES (Gibco, Cat#15630) and 2.5 mM probenecid (Sigma, Cat# P8761). Plates were then transferred to a FDSS7000 fluorescence plate reader (HAMAMATSU, Japan) and Ca^2+ responses were measured in real time using a CCD camera with excitation 480 nm/emission 540 nm. Prior to stimulation, baseline measurements were recorded over 5 s (Fmin). For stimulation, 20 µl of test compounds prepared 2× in HBSS containing 20 mM HEPES were dispensed. Fluorescence was read over 1–1.5 min. Maximum fluorescence (Fmax) was determined and normalized to baseline. Data are reported as ∆F/F = (Fmax – Fmin)/Fmin. Adequate response of the endogenous M3R was verified for each transfection, using carbachol at 100 µM and following the same procedure as for the peptide activation.
(§3) Concentration response curves were analyzed using GraphPad Prism 9.2.0. Potency was determined using a nonlinear regression model with variable slope, and statistical significance was determined using a one-way ANOVA followed by Dunnett’s multiple comparison test or a TTEST for comparison of two data sets (*p<0.05, **p<0.01, ***p<0.001, ****p<0.0001, ns, not significant).

[2] = molecular target: T2, full-length hGPR116 (HEK293 clone A6) (Homo sapiens, UniProt Q8IZF2); assay: Calcium transient assay, full-length hGPR116 stably expressed in HEK293 (clone A6); format: cell-based; settings: calcium transients, hFL clone A6, Figure 3-figure supplement 2 / Figure 7A
T2 construct: expressed in transfected cells
T2 sequence (Q8IZF2 22-1346): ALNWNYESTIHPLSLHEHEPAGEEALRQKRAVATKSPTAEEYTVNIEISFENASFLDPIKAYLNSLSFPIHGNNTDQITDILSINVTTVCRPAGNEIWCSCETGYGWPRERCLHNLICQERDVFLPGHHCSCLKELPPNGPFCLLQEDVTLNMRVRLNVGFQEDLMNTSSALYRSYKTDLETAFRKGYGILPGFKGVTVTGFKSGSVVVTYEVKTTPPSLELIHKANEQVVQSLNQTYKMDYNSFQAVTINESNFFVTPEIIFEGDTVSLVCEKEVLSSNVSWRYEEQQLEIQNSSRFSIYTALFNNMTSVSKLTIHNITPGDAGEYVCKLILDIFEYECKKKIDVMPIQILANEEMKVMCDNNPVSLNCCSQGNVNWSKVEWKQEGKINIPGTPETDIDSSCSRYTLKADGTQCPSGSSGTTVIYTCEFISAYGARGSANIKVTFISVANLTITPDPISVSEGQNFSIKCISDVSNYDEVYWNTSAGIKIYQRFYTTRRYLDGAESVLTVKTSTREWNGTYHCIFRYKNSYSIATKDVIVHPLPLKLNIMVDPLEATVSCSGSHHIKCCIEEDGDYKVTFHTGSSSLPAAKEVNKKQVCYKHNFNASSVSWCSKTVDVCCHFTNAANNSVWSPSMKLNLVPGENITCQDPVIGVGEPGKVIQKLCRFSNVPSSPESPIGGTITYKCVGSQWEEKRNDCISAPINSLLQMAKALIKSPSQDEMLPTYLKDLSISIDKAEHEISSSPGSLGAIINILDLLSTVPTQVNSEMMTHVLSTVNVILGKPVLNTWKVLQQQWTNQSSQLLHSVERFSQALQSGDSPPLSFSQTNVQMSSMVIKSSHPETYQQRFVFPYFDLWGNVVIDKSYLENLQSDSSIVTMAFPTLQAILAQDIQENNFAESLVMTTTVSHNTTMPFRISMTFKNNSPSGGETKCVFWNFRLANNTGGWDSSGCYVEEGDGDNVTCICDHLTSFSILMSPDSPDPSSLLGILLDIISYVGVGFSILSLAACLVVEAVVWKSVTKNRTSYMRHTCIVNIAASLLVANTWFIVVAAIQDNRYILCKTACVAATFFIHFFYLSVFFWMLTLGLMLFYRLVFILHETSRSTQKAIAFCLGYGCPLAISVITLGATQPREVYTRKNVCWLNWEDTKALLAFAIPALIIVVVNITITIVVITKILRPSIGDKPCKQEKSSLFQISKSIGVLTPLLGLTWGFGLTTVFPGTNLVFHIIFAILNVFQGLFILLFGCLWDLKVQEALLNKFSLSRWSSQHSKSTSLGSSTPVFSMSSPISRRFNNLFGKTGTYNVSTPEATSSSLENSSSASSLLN
Method: as §1, §2, §3

[3] = molecular target: T3, mouse GPR116 full-length, V5 tagged, clone 1D8 (mouse) (UniProt G5E8Q8)
T3 sequence: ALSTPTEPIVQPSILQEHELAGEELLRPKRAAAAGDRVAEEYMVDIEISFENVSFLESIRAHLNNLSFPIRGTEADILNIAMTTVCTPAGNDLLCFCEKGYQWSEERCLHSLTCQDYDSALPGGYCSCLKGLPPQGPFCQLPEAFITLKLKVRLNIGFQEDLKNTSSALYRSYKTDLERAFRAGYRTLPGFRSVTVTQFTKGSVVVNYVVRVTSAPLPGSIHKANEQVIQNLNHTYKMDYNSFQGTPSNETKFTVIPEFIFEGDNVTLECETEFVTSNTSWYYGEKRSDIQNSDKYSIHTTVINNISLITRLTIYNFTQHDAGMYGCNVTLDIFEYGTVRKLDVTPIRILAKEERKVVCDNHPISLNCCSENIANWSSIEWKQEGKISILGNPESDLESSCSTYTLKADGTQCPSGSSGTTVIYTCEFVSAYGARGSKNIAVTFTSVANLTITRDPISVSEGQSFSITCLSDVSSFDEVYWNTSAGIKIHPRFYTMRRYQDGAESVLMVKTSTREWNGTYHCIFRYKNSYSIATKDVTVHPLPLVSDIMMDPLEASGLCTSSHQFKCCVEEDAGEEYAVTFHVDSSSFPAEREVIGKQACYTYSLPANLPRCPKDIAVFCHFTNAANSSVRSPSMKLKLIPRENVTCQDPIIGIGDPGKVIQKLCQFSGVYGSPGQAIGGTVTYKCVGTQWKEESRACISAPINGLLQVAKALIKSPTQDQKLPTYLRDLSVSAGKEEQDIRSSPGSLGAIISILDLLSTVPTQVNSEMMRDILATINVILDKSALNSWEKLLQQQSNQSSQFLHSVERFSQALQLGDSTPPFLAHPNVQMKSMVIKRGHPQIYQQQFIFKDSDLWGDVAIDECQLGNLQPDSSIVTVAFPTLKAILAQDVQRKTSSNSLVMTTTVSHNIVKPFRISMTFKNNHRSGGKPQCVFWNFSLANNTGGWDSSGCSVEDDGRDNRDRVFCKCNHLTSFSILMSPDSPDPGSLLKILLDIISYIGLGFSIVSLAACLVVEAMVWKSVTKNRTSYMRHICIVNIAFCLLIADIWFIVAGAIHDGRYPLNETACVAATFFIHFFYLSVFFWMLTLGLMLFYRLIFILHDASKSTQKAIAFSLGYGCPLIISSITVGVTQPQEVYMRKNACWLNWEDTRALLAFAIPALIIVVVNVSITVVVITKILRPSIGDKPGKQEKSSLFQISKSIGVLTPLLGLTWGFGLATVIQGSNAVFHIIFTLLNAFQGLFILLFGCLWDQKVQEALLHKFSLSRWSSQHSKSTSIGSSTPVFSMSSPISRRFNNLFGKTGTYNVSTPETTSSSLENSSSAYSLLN

Row | Molecule | activation of the mouse full-length receptor (in words) [1] | activation of the human full-length receptor (in words) [2] | EC50 of receptor activation (calcium transients), HEK293 cells stably expressing the receptor [3] | other results
1 | TSFSILASPD [GAP10-POS7] | failed to activate | failed to activate |  | 
2 | TSFSILMSPD [GAP10] |  |  |  | EC50 (uM) n=1 ([1]; calcium transient assay, HEK293 clone 3C, Fig 3F, independent experiment n=1 (mean of quadruplicate)): 16.0 µM; EC50 (uM) n=2 ([1]; calcium transient assay, HEK293 clone 3C, Fig 3F, independent experiment n=2 (mean of quadruplicate)): 8.6 µM; EC50 (uM) n=3 ([1]; calcium transient assay, HEK293 clone 3C, Fig 3F, independent experiment n=3 (mean of quadruplicate)): 6.9 µM
3 | CCCC[C@H](NC(=O)[C@H](C)NC(=O)[C@@H](NC(=O)[C@H](CO)NC(=O)[C@H](Cc1ccccc1)NC(=O)[C@H](CO)NC(=O)[C@@H](N)[C@@H](C)O)[C@@H](C)CC)C(=O)N[C@@H](CO)C(=O)N1CCC[C@H]1C(=O)N[C@@H](CC(=O)O)C(=O)O [GAP10-POS6] (H-TSFSIA[Nle]SPD-OH; N-terminus and C-terminus assumed) | failed to activate | failed to activate |  | 
4 | CCCC[C@H](NC(=O)[C@H](CC(C)C)NC(=O)[C@@H](NC(=O)[C@H](CO)NC(=O)[C@H](C)NC(=O)[C@H](CO)NC(=O)[C@@H](N)[C@@H](C)O)[C@@H](C)CC)C(=O)N[C@@H](CO)C(=O)N1CCC[C@H]1C(=O)N[C@@H](CC(=O)O)C(=O)O [GAP10-POS3] (H-TSASIL[Nle]SPD-OH; N-terminus and C-terminus assumed) | failed to activate | failed to activate |  | EC50 ([1]; calcium transient assay, HEK293 clone 3C, Fig 3F, independent experiment n=1 (mean of quadruplicate), read-out: EC50 (uM) n=1): > 100 µM; EC50 ([1]; calcium transient assay, HEK293 clone 3C, Fig 3F, independent experiment n=2 (mean of quadruplicate), read-out: EC50 (uM) n=2): > 100 µM; EC50 ([1]; calcium transient assay, HEK293 clone 3C, Fig 3F, independent experiment n=3 (mean of quadruplicate), read-out: EC50 (uM) n=3): > 100 µM; EC50 ([1]; calcium transient assay, HEK293 clone 3C, Fig 3F, mean of n=2-3 independent experiments, read-out: EC50 (uM) mean): > 100 µM
5 | TSFSIL[Nle]SPDSPDP [GAP14] |  |  | 107 µM | 
6 | TSFSIL[Nle]SPD [GAP10] |  |  | 25 µM | 
7 | PSFSIL[Nle]SPD [GAP10-Pro1] |  |  | 17 µM | 

From paper PMC9489211, “Regulation of pulmonary surfactant by the adhesion GPCR GPR116/ADGRF5 requires a tethered agonist-mediated activation mechanism” (eLife, 2022)
